How the values were obtained:
myogenin = myogenin mRNA expression in L6 muscle cells (RT-PCR), muscle differentiation; assay type: cell-based; conditions: fucosterol 1 and 10 μM, 6 days, vs 0.01% DMSO control, FIG. 3
Procedure: (§1) As muscle cells, L6 myoblasts (ATCC) were added to a 6-well plate at a density of 2×10^5 cells/mL together with DMEM (Hyclone) supplemented with 10% FBS (Hyclone). When the cell density reached approximately 80 to 85%, the medium contained in the wells was removed, and the fucosterol isolated and purified in Example 3 was dissolved at concentrations of 1 and 10 μM in DMEM (Hyclone) supplemented with 2% HS (Hyclone), and the cells were treated with the fucosterol to induce myotube differentiation. In this case, a group in which the cells were treated with 0.01% DMSO instead of the sample was used as the control. This procedure was carried out at an interval of 2 days for 6 days to differentiate the cells, and total RNA was isolated using a TRIzol reagent (Invitrogen, Carlsbad, Calif., USA). The isolated total RNA was quantified using NanoDrop 1000 (Thermo Fisher Scientific Inc., MA, USA). 16 μL of the quantified RNA was synthesized into cDNA using Reverse Transcriptase Premix (ELPIS-Biotech) and a PCR machine (Gene Amp PCR System 2700, Applied Biosystems, MA, USA) under conditions of 42° C. and 55 minutes and 70° C. and 15 minutes. […]

atrogin-1 = atrogin-1 mRNA expression in TNF-α-treated L6 muscle cells (RT-PCR), muscle protein degradation; assay type: cell-based; conditions: differentiated L6 muscle cells, 50 ng/mL TNF-α, fucosterol 1 and 10 μM, 6 hours, FIG. 6
Procedure: (§2) As muscle cells, L6 myoblasts (ATCC) were added to a 6-well plate at a density of 2×10^5 cells/mL together with DMEM (Hyclone) supplemented with 10% FBS (Hyclone). When the cell density reached approximately 80 to 85%, the medium contained in the wells was removed, and the cells were treated with DMEM (Hyclone) supplemented with 2% HS (Hyclone) to induce myotube differentiation. Cell differentiation was performed for a total of 6 days while replacing the medium with a fresh medium every 2 days. After the differentiation, the fucosterol isolated and purified in Example 3 was dissolved at concentrations of 1 and 10 μM in DMEM (Hyclone) supplemented with 50 ng/mL of tumor necrosis factor alpha (TNF-α; PeproTech, Rocky Hills, N.J., USA), and the cells were then treated with the fucosterol. After 6 hours, total RNA was isolated using a TRIzol reagent (Invitrogen). The isolated total RNA was quantified using NanoDrop 1000 (Thermo Fisher Scientific Inc., MA, USA). 16 μL of the quantified RNA was synthesized into cDNA using Reverse Transcriptase Premix (ELPIS-Biotech) and a PCR machine (Gene Amp PCR System 2700; Applied Biosystems) under conditions of 42° C. and 55 minutes and 70° C. and 15 minutes. […]

p-p70S6K = p-p70S6K protein expression in L6 muscle cells (Western blot); assay type: cell-based; conditions: fucosterol 1 and 10 μM, FIG. 2
Procedure: (§3) As muscle cells, L6 myoblasts (ATCC CRL-1458, Manassas, Va., USA) were added to a 6-well plate at a density of 2×10^5 cells/mL together with a Dulbecco's modified Eagle's medium (DMEM; Hyclone) supplemented with 10% fetal bovine serum (FBS; Hyclone, Logan, Utah, USA). […] In this case, a group in which the cells were treated with 0.01% DMSO instead of the sample was used as the control. This procedure was carried out at an interval of 2 days for 6 days to differentiate the cells, and the cells were then dissolved in an NP-40 buffer (ELPIS-Biotech, Daejeon, Korea) containing a proteinase inhibitor cocktail. The cells lysed in the buffer were transferred to a 1.5 ml tube, and centrifuged at 13,000 rpm for 10 minutes to collect only a supernatant. The supernatant was quantified using a Bradford method (Bradford, Bio-Rad Laboratories Inc., Hercules, Calif., USA). The quantified proteins were boiled for 5 minutes, and separated through 10% SDS-PAGE, and the separated proteins were transferred to a nitrocellulose membrane. A p-mTOR primary antibody (Cell Signaling Technology, Beverly, Mass., USA) was diluted with 2.5% bovine serum albumin (BSA) at a ratio of 1:1,000, and reacted with the proteins transferred to the nitrocellulose membrane at room temperature for 20 hours. […]

[1] = test system: Wistar rats with TNF-α-induced muscle atrophy; conditions: 300 mg/kg, 1344 h
Procedure: Five-week-old Wistar rats (Daehan Biolink, Korea) were adapted for one week, and fed 100 ng/g of TNF-α for 2 weeks to induce muscle atrophy. Thereafter, the rats were randomly divided into a total of 6 groups based on the weights thereof, each group consisting of 8 rats, which were then used in this experiment. […] In this case, a group in which TNF-α was added to the same amount of 0.25% carboxymethyl cellulose which the experimental group ingested was used as the control.
After the sample was administered for 8 weeks, muscles were incised from right lower calves of the rats, and weighed using a microbalance (Mettler PE160, USA).

p-4EBP1 = p-4EBP1 protein expression in L6 muscle cells (Western blot); assay type: cell-based; conditions: fucosterol 1 and 10 μM, FIG. 2
Procedure: as §3

MuRF-1 = MuRF-1 mRNA expression in TNF-α-treated L6 muscle cells (RT-PCR), muscle protein degradation; assay type: cell-based; conditions: differentiated L6 muscle cells, 50 ng/mL TNF-α, fucosterol 1 and 10 μM, 6 hours, FIG. 6
Procedure: as §2

p-mTOR = p-mTOR protein expression in L6 muscle cells (Western blot); assay type: cell-based; conditions: fucosterol 10 μM, treated every 2 days for 6 days, vs 0.01% DMSO control, FIG. 1
Procedure: As muscle cells, L6 myoblasts (ATCC CRL-1458, Manassas, Va., USA) were added to a 6-well plate at a density of 2×10^5 cells/mL together with a Dulbecco's modified Eagle's medium (DMEM; Hyclone) supplemented with 10% fetal bovine serum (FBS; Hyclone, Logan, Utah, USA). […] The supernatant was quantified using a Bradford method (Bradford, Bio-Rad Laboratories Inc., Hercules, Calif., USA). The quantified proteins were boiled for 5 minutes, and separated through 10% SDS-PAGE, and the separated proteins were transferred to a nitrocellulose membrane. […]
Muscle cells were treated with the ultra-high pressure extract of Sargassum fulvellum prepared in Example 1-6, the supercritical fluid extract of Sargassum fulvellum prepared in Example 1-7, the subcritical fluid extract of Sargassum fulvellum prepared in Example 1-8, the ultra-high pressure extract of Sargassum fusiforme prepared in Example 2-6, the supercritical fluid extract of Sargassum fusiforme prepared in Example 2-7, and the subcritical fluid extract of Sargassum fusiforme prepared in Example 2-8 at a concentration of 20 ppm in the same manner as in Example 4. A p-mTOR protein band was chromogenically developed using an ECL Western blotting detection reagent (Amersham, Tokyo, Japan), and a density of the chromogenically developed protein band was measured using a G;BOX EF imaging system (Syngene, Cambridge, UK). […]

MyoD = MyoD mRNA expression in L6 muscle cells (RT-PCR), muscle differentiation; assay type: cell-based; conditions: fucosterol 1 and 10 μM, 6 days, vs 0.01% DMSO control, FIG. 3
Procedure: as §1

C/C=C(\CC[C@@H](C)[C@H]1CC[C@H]2[C@@H]3CC=C4C[C@@H](O)CC[C@]4(C)[C@H]3CC[C@]12C)C(C)C [Fucosterol, (3-beta,24E)-stigmasta-5,24(28)-dien-3-ol]
mRNA expression of myogenin (myogenin): increased | mRNA expression of atrogin-1 (atrogin-1): decreased | protein expression level of p-p70S6K (p-p70S6K): increased | Mean weight of calf muscles [1]: 522.1 ± 30.6 mg | increase in weights of the muscles compared to the control [1]: 25.78% | protein expression level of p-4EBP1 (p-4EBP1): increased | mRNA expression of MuRF-1 (MuRF-1): decreased | expression level of p-mTOR (p-mTOR): increased | mRNA expression of MyoD (MyoD): increased
